Laboratory results reported in PubChem BioAssay (NCI).
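Assay format: 96-well plates, 48-hour exposure. TGI marks complete inhibition of growth.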

Experiments:
Experiment in all cases: inhibition of tumour cell growth, NCI panel, 48 h
MDA-MB-231 breast = test system: MDA-MB-231 breast
MCF7 breast = test system: MCF7 breast
UACC-62 melanoma = test system: UACC-62 melanoma
HL-60(TB) leukemia = test system: HL-60(TB) leukemia
HOP-62 NSCLC = test system: HOP-62 NSCLC
DU-145 prostate = test system: DU-145 prostate
A549 NSCLC = test system: A549 NSCLC
UO-31 renal = test system: UO-31 renal
OVCAR-8 ovarian = test system: OVCAR-8 ovarian
SW-620 colon = test system: SW-620 colon

Measured: TGI

CC(=O)N(CN1C(=O)CCC1C(=O)O)c1ccccc1 (stereo not given)
> 100 µM: MDA-MB-231 breast | MCF7 breast | UACC-62 melanoma | HL-60(TB) leukemia | HOP-62 NSCLC | DU-145 prostate | A549 NSCLC | UO-31 renal | OVCAR-8 ovarian | SW-620 colon

CCOC(=O)c1ccc(C(=O)C(C(C)=O)C(=O)OC(C)(C)C)n1C (stereo not given)
> 100 µM: MDA-MB-231 breast | MCF7 breast | UACC-62 melanoma | HL-60(TB) leukemia | HOP-62 NSCLC | DU-145 prostate | A549 NSCLC | UO-31 renal | OVCAR-8 ovarian | SW-620 colon
